Experimental data reported in patent publication US20240391931A1 (Bristol-Myers Squibb Company, priority 2021, published 2024).

Legend:
[1] = test system: NCI-H1781 cells; assay: Cellular proliferation in NCI-H1781 cells (CellTiter Glo); type: cell-based, human; conditions: Homo sapiens, NCI-H1781, NCI-H1781 cells, 120 h, redosed after 72 h
Procedure, shortened: (§1)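 HER2-amplified BT474 and N87 and HER2VC-expressing NCI-H1781, attached overnight, treated with nine compound concentrations from 3 μM in 0.1% DMSO with 5% FBS (7.5% for NCI-H1781). CellTiter Glo read at 72 h (N87) or 120 h with re-dosing at 72 h (BT474, NCI-H1781); converted to cell numbers via standard curve for GI50.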

[2] = target: T1, HER2 wildtype (WT) protein (Homo sapiens, UniProt P04626); assay: HER2 signaling (pHER2 Tyr1248/total HER2 MSD) in BT474 cells; type: cell-based; conditions: 1.5 hr compound, 1% FBS
T1 construct: BT474 and N87 cell lines which endogenously overexpress the HER2 wildtype (WT) protein; endogenous in cells; host or cells: BT474, N87
T1 sequence (P04626 23-1255): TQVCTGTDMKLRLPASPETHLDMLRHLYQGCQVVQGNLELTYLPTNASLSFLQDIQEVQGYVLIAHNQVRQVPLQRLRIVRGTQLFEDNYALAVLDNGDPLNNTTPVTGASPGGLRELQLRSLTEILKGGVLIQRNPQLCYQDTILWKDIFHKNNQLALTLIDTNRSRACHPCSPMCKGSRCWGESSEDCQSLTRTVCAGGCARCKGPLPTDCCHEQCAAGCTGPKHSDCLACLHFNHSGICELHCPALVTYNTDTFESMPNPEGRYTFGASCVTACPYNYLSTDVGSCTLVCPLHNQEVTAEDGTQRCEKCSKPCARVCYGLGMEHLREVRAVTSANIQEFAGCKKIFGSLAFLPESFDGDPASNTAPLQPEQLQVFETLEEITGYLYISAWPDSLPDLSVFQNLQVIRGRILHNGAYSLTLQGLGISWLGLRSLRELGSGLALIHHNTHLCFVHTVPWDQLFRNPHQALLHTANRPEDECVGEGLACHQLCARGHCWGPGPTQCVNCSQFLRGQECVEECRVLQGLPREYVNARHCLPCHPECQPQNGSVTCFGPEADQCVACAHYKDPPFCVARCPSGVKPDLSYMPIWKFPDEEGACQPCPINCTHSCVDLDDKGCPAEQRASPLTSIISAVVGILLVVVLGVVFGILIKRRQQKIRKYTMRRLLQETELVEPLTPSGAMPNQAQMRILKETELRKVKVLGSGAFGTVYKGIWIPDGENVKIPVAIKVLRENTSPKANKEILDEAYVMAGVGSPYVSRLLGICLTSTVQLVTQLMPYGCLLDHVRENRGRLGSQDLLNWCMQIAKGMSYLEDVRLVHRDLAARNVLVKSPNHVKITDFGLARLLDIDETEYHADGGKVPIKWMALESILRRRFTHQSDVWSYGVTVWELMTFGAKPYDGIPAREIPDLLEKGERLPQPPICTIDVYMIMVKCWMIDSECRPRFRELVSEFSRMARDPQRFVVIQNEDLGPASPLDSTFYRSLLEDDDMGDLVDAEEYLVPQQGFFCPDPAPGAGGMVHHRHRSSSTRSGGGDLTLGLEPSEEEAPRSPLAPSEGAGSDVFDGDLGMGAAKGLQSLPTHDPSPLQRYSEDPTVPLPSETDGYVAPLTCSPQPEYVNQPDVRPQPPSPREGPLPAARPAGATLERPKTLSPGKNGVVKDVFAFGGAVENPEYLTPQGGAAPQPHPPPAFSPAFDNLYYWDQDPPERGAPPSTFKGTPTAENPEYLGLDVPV
Procedure, shortened: (§2)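 BT474, N87 (HER2 WT) and NCI-H1781 (HER2 G776delinsVC) cells were treated for 1.5 h at 37° C in 1% FBS medium with compound at 0.0005–1.1 μM. pHER2 Tyr1248 was measured by MSD on whole-cell lysates and normalized to total HER2 as % DMSO. EC50 came from a variable-slope sigmoidal fit.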

[3] = test system: N87 cells; assay: Cellular proliferation in N87 cells (CellTiter Glo); type: cell-based, human; conditions: Homo sapiens, 72 h
Procedure, shortened: as §1

[4] = target: T1, HER2 wildtype (WT) protein; assay: HER2 signaling (pHER2 Tyr1248/total HER2 MSD) in N87 cells; type: cell-based; conditions: 1.5 hr compound, 1% FBS
Procedure, shortened: as §2

[5] = target: T2, HER2VC (G776delinsVC) (Homo sapiens, UniProt P04626, G776C/INS775V); assay: HER2 signaling (pHER2) in NCI-H1781 cells; type: cell-based; conditions: 1.5 hr compound, 1% FBS
T2 construct: NCI-H1781 cells which endogenously expresses a HER2 mutant protein; endogenous in cells; host or cells: NCI-H1781
T2 sequence (P04626 with tags, fused parts or gaps INS775V/G776C): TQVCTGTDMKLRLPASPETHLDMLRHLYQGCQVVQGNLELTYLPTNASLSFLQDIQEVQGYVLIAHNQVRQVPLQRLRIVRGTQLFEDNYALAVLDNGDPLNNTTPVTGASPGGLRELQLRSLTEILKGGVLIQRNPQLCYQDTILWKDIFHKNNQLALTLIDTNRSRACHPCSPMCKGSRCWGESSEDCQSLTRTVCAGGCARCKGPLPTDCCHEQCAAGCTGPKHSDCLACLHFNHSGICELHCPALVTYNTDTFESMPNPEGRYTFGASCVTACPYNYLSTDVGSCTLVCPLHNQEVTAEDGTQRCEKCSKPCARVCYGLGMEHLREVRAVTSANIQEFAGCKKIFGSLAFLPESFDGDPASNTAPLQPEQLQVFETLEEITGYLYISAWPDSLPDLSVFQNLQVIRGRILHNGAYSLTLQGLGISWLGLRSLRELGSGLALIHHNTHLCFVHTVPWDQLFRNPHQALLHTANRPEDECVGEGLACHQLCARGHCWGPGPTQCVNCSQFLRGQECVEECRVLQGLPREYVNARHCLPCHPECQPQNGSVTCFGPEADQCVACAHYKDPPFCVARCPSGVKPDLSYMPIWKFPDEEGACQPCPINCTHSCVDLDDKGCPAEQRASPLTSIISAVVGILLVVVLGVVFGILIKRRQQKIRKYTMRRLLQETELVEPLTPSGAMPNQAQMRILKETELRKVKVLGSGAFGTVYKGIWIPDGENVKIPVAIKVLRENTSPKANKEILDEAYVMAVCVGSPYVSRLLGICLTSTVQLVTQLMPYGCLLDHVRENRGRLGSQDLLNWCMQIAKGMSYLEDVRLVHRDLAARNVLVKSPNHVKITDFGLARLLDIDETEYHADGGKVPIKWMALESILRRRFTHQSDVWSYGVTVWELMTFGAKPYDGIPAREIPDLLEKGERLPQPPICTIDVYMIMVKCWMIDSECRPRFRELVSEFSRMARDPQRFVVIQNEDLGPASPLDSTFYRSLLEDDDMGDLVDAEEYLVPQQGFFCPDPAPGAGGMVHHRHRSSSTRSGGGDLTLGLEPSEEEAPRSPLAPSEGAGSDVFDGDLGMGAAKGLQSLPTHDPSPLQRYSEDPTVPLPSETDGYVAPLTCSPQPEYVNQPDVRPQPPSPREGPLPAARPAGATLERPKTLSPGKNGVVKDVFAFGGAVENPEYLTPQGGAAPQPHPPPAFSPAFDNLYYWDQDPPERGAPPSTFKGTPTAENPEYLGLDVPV
Procedure, shortened: as §2

[6] = test system: BT474 cells; assay: Cellular proliferation in BT474 cells (CellTiter Glo); type: cell-based, human; conditions: Homo sapiens, BT-474, BT474 cells, 120 h, redosed after 72 h
Procedure, shortened: as §1

Cc1ccc(Oc2ccc(Nc3ncnc4sc5c(c34)CCN(C(=O)/C=C/CN3CC4C(CO)C4C3)C5)cc2C)cn1 (stereo not drawn) [Compound 34]
< 100 nM: GI50 [1] | EC50 [2] | GI50 [3] | EC50 [4] | EC50 [5] | GI50 [6]

COc1ccc(Oc2ccc(Nc3ncnc4sc5c(c34)CCN(C(=O)/C=C/CN(C)C)C5)cc2C)cn1 [Compound 95, (E)-4-(Dimethylamino)-1-(4-((4-((6-methoxypyridin-3-yl)oxy)-3-methylphenyl)amino)-5,6-dihydropyrido[4′,3′:4,5]thieno[2,3-d]pyrimidin-7(8H)-yl)but-2-en-1-one]
< 100 nM: GI50 [1] | EC50 [2] | GI50 [3] | EC50 [4] | EC50 [5] | GI50 [6]

Cc1ccc(Oc2ccc(Nc3ncnc4sc5c(c34)CCN(C(=O)/C=C/CN(C)C)CC5)cc2C)cn1 [Compound 100, (E)-4-(dimethylamino)-1-(4-((3-methyl-4-((6-methylpyridin-3-yl)oxy)phenyl)amino)-8,9-dihydro-5H-pyrimido[5′,4′:4,5]thieno[2,3-d]azepin-7(6H)-yl)but-2-en-1-one]
< 100 nM: GI50 [1] | EC50 [2] | GI50 [3] | EC50 [4] | EC50 [5] | GI50 [6]
